Structures are written as SMILES. Read-outs that look alike come from different tables or passages of the source.

Data on 19 compounds can be found in patent US20250099431A1, “GLP-1R MODULATING COMPOUNDS” (priority 2020, published 2025).

The target of one data set is GLP-1R (Homo sapiens (Human), UniProt P43220). The data set can be described thus: GLP-1R activation: cAMP increase in CHO cells stably expressing GLP-1R. In kind it is cell-based. The note with it: 10 point dose response, 30 minutes incubation at 37° C. How it is done:
GLP-1R activation by a compound of the present disclosure was quantified by measuring cAMP increase in CHO cells stably expressing GLP-1R (MultiSpan product #C1267-1a). […] The cells were then incubated overnight at 37° C., 5% CO2. […] 1% BSA (Rockland Immunochemicals product #BSA-1000)). Following the medium change, the cells were incubated for 1 hour at 37° C., 5% CO2. The tested GLP-1 compound was added to the cells in a 10 point dose response followed by a 30 minutes incubation at 37° C., 5% CO2. cAMP concentration increase was then detected using Cisbio's cAMP Gs Dynamic Kit (product #62AM4PEC) according to the manufacturer's protocol. The response was plotted against the log of the agonist concentration and fitted to a sigmoidal equation to determine the EC50.

Data set [1] is described as follows: Microsomal stability (liver microsomal assay, mixed cofactors); predicted hepatic clearance. The class given is in vitro ADME. The note with it: liver microsomes 1.0 mg protein/mL (+UDPGA +NADPH), 1 μM analyte, 37° C.; scaled with human liver weight and hepatic blood flow 1.3 L/hr/kg. The protocol: Metabolic stability of compounds was assessed using human or rat liver microsomal assays (Corning). In these assays, 10 nL of each analyte at a concentration of 1 mM in 100% DMSO was dispensed into a well of a polypropylene plates using the Echo 550 acoustic liquid dispenser (Labcyte®). Each plate contained 384 wells with a single analyte in each well.
A solution of human (Corning® Gentest™ Human Mixed Pooled Microsomes or rat (Corning® Gentest™ Rat [Sprague-Dawley] Pooled Liver Microsomes) liver microsomes at 2 mg/ml in 100 mM K2HPO4/KH2PO4 at pH 7. 4 was combined with alamethicin from Trichoderma viride (Sigma-Aldrich) 0.0225 mg/ml. The mixture was incubated on ice for 15 minutes. 5 μL of this mixture was added to individual wells following a 15 minute incubation at room temperature and supplemented with 5 μL NADPH Regenerating Solution of cofactors (Corning® Gentest™ UGT Reaction Mix) containing 100 mM K2HPO4/KH2PO4 at pH 7.4, 2.6 mM NADP+, 6.6 mM glucose-6-phosphate, 6.6 mM MgCl2, 0.8 U/mL glucose-6-phosphate dehydrogenase, 0.1 mM sodium citrate, and 6.8 mM uridine diphosphate-glucuronic acid. The final concentration of each analyte compound at the beginning of the reaction was 1 μM. The reactions were incubated at 37° C. and samples were collected at time points of 0, 5, 15, 30, 40, 50, 60, and 70 minutes for further analysis. Background data were collected using reactions without analyte compounds.
Upon collection of the sample time points, samples were quenched with 30 μL of a solution of 72% acetonitrile, 8% methanol, 0.1% formic acid, 19.9% water, and internal standard (IS). Reaction plates were spun in a centrifuge at speed of 4,000 rcf for 30 minutes at 4° C., following a dilution of the 10 μL quenched reaction into 40 μL de-ionized water, yielding assay plates.
Assay plates were analyzed using solid-state extraction coupled with quadrupole time-of-flight mass spectrometer, using Agilent QToF 6530 RapidFire 360 system, with C4 type A solid state cartridges. Analysis was performed in either positive or negative ionization modes. Mobile phases contained 0.1% formic acid in water for loading analytes onto solid state extraction cartridges and 0.1% formic acid in acetonitrile for elution into a mass spectrometer in positive ionization mode, or 0.1% acetic acid in water for loading and 0.1% acetic acid in acetonitrile for extraction in negative ionization mode. Peak-area ratios of integrated counts for individual compounds to IS were plotted as semi-logarithmic chart of log vs time. The initial linear portion of decay was fitted to a linear regression equation to derive the half-time of analyte decay.
Pharmacological parameters for an analyte compound metabolism were calculated using the following equations: […]
wherein concentration refers to the protein concentration (mg/ml) in the reaction.
This scales the in vitro intrinsic clearance up to the value that would be predicted for the entire mass of liver tissue (but with no restriction by blood flow). The value depends upon the size of the liver (species-dependent) and the yield of microsomal protein as appropriate (assumed to be species-independent).
Hepatic clearance will depend upon the inter-relationship of intrinsic clearance and hepatic blood flow and was predicted from in vitro data using a variety of approaches.
The hepatic extraction is reported as the predicted clearance expressed as a proportion of hepatic blood flow.

Chain of GLP-1R (P43220 24-463): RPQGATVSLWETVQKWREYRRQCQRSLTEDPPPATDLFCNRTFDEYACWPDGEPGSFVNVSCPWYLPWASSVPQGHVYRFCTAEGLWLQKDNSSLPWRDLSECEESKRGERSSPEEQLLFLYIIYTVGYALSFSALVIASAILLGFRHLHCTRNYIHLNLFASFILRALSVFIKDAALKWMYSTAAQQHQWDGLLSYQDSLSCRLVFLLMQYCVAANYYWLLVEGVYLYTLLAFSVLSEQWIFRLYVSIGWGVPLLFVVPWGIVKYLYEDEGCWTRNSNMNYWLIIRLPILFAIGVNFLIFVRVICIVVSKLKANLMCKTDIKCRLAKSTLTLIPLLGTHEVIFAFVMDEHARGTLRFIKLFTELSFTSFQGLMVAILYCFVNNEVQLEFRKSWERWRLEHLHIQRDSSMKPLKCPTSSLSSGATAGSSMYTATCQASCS

One may read the EC50 as the midpoint of the concentration-response curve. On to `CC1(c2ccc(Cl)cc2F)Oc2cccc(-c3cc(F)c(Cc4nc5ccc(C(=O)O)cc5n4C[C@@H]4CCO4)cc3F)c2O1` (single isomer, unassigned) [Example 44], for which the EC50 on GLP-1R (cAMP increase, read-out: EC50) came out at 0.033 nM. For the same compound, the “Predicted Hepatic Clearance (Pred. Cl.)” value in data set [1] is 4.83 mL/min/kg.
As to `CC1(c2ccc(Cl)cn2)Oc2cccc(-c3cc(F)c(Cc4nc5ccc(C(=O)O)cc5n4C[C@@H]4CCO4)cc3F)c2O1` (single isomer, unassigned) [Example 45], on GLP-1R (cAMP increase, read-out: EC50), the EC50 is 0.19 nM. Further, in data set [1], the “Predicted Hepatic Clearance (Pred. Cl.)” value is 5 mL/min/kg.
As for `CC1(c2ccc(Cl)cn2)Oc2cccc(-c3cc(F)c(Cc4nc5ccc(C(=O)O)cc5n4C[C@@H]4CCO4)cc3F)c2O1` (single isomer, unassigned) [Example 46], on GLP-1R (cAMP increase, read-out: EC50), the EC50 was 17 nM. For the same compound, the “Predicted Hepatic Clearance (Pred. Cl.)” value in data set [1] was 4.33 mL/min/kg.
For the compound `CC1(c2ccc(Cl)cc2F)Oc2cccc(-c3cc(F)c(Cc4nc5ccc(C(=O)O)cc5n4C[C@@H]4CCO4)c(F)c3)c2O1` (single isomer, unassigned) [Example 47], a half-maximal effect on GLP-1R (EC50, cAMP increase) (EC50) was put at 0.07 nM. For the same compound, the “Predicted Hepatic Clearance (Pred. Cl.)” value in data set [1] was 3.17 mL/min/kg.
At GLP-1R (EC50, cAMP increase), `CC1(c2ccc(Cl)cc2F)Oc2cccc(-c3cc(F)c(Cc4nc5ccc(C(=O)O)cc5n4C[C@@H]4CCO4)c(F)c3)c2O1` (single isomer, unassigned) [Example 48] had an EC50 of 1.2 nM. Besides, the “Predicted Hepatic Clearance (Pred. Cl.)” value in data set [1] was 2 mL/min/kg.
`CC1(c2ccc(Cl)cn2)Oc2cccc(-c3cc(F)c(Cc4nc5ccc(C(=O)O)cc5n4C[C@@H]4CCO4)c(F)c3)c2O1` (single isomer, unassigned) [Example 49]: the EC50 on GLP-1R (cAMP increase, read-out: EC50) turned out to be 0.31 nM. In data set [1], the “Predicted Hepatic Clearance (Pred. Cl.)” value was 3.33 mL/min/kg.
For `CC1(c2ccc(Cl)cn2)Oc2cccc(-c3cc(F)c(Cc4nc5ccc(C(=O)O)cc5n4C[C@@H]4CCO4)c(F)c3)c2O1` (single isomer, unassigned) [Example 50], at GLP-1R (cAMP increase, read-out: EC50), the EC50 came to 16 nM. In data set [1], the “Predicted Hepatic Clearance (Pred. Cl.)” value was 3.17 mL/min/kg.
In the same order, the values of `CC1(c2ccc(C#N)cc2F)Oc2cccc(-c3cc(F)c(Cc4nc5ccc(C(=O)O)cc5n4C[C@@H]4CCO4)c(F)c3)c2O1` (single isomer, unassigned) [Example 92] are 3.3 nM and 2.67 mL/min/kg.
On to `CC1(c2ccc(C#N)cc2F)Oc2cccc(-c3cc(F)c(Cc4nc5ccc(C(=O)O)cc5n4C[C@@H]4CCO4)c(F)c3)c2O1` (single isomer, unassigned) [Example 93], for which the EC50 on GLP-1R (cAMP increase, read-out: EC50) was 0.52 nM. In addition, the “Predicted Hepatic Clearance (Pred. Cl.)” value in data set [1] is 6 mL/min/kg.
Take `CC1(c2ccc(C#N)cc2F)Oc2cccc(-c3cc(F)c(Cc4nc5ccc(C(=O)O)cc5n4C[C@@H]4CCO4)c(F)c3F)c2O1` (single isomer, unassigned) [Example 94]: the EC50 at GLP-1R (cAMP increase, read-out: EC50) came out at 0.32 nM. In data set [1], the “Predicted Hepatic Clearance (Pred. Cl.)” value is 7 mL/min/kg.
For `CC1(c2ccc(C#N)cc2F)Oc2cccc(-c3cc(F)c(Cc4nc5ccc(C(=O)O)cc5n4C[C@@H]4CCO4)c(F)c3F)c2O1` (single isomer, unassigned) [Example 95], the EC50 on GLP-1R (cAMP increase, read-out: EC50) amounted to 21 nM. Also, the “Predicted Hepatic Clearance (Pred. Cl.)” value in data set [1] was 2.83 mL/min/kg.
As for `COCCn1c(Cc2c(F)cc(-c3cccc4c3OC(C)(c3ccc(C#N)cc3F)O4)c(F)c2F)nc2ccc(C(=O)O)cc21` (single isomer, unassigned) [Example 96, 2-(4-(2-(4-cyano-2-fluorophenyl)-2-methylbenzo[d][1, 3]dioxol-4-yl)-2,3,6-trifluorobenzyl)-1-(2-methoxyethyl)-1H-benzo[d]imidazole-6-carboxylic acid], at GLP-1R (cAMP increase, read-out: EC50), the 50% effective concentration (EC50) was 57 nM. The “Predicted Hepatic Clearance (Pred. Cl.)” value in data set [1] was 3.5 mL/min/kg.
The matching figures for `COCCn1c(Cc2c(F)cc(-c3cccc4c3OC(C)(c3ccc(C#N)cc3F)O4)c(F)c2F)nc2ccc(C(=O)O)cc21` (single isomer, unassigned) [Example 97, 2-(4-(2-(4-cyano-2-fluorophenyl)-2-methylbenzo[d][1, 3]dioxol-4-yl)-2,3,6-trifluorobenzyl)-1-(2-methoxyethyl)-1H-benzo[d]imidazole-6-carboxylic acid]: 1.9 nM and 15.2 mL/min/kg.
In the case of `COCCn1c(Cc2c(F)cc(-c3cccc4c3OC(C)(c3ccc(C#N)cc3F)O4)cc2F)nc2ccc(C(=O)O)cc21` (single isomer, unassigned) [Example 98, 2-(4-(2-(4-cyano-2-fluorophenyl)-2-methylbenzo[d][1, 3]dioxol-4-yl)-2,6-difluorobenzyl)-1-(2-methoxyethyl)-1H-benzo[d]imidazole-6-carboxylic acid], the EC50 on GLP-1R (cAMP increase, read-out: EC50) came to 67 nM. In addition, in data set [1], the “Predicted Hepatic Clearance (Pred. Cl.)” value was 3.5 mL/min/kg.
For `COCCn1c(Cc2c(F)cc(-c3cccc4c3OC(C)(c3ccc(C#N)cc3F)O4)cc2F)nc2ccc(C(=O)O)cc21` (single isomer, unassigned) [Example 99, 2-(4-(2-(4-cyano-2-fluorophenyl)-2-methylbenzo[d][1, 3]dioxol-4-yl)-2,6-difluorobenzyl)-1-(2-methoxyethyl)-1H-benzo[d]imidazole-6-carboxylic acid], the EC50 at GLP-1R (cAMP increase, read-out: EC50) was 2.4 nM. Also, the “Predicted Hepatic Clearance (Pred. Cl.)” value in data set [1] was 11.3 mL/min/kg.
As for `CC1(c2ccc(Cl)cc2F)Oc2cccc(-c3cc(F)c(Cc4nc5c(F)cc(C(=O)O)cc5n4CC4(CC#N)CC4)c(F)c3)c2O1` (single isomer, unassigned) [Example 105, 2-(4-(2-(4-chloro-2-fluorophenyl)-2-methylbenzo[d][1, 3]dioxol-4-yl)-2,6-difluorobenzyl)-1-((1-(cyanomethyl)cyclopropyl)methyl)-4-fluoro-1H-benzo[d]imidazole-6-carboxylic acid], at GLP-1R (cAMP increase, read-out: EC50), the EC50 was determined as 2.6 nM. In addition, in data set [1], the “Predicted Hepatic Clearance (Pred. Cl.)” value was 1.83 mL/min/kg.
In the same order, the values of `CC1(c2ccc(Cl)cc2F)Oc2cccc(-c3cc(F)c(Cc4nc5c(F)cc(C(=O)O)cc5n4CC4(CC#N)CC4)c(F)c3)c2O1` (single isomer, unassigned) [Example 106, 2-(4-(2-(4-chloro-2-fluorophenyl)-2-methylbenzo[d][1, 3]dioxol-4-yl)-2,6-difluorobenzyl)-1-((1-(cyanomethyl)cyclopropyl)methyl)-4-fluoro-1H-benzo[d]imidazole-6-carboxylic acid] are 0.64 nM and 15.2 mL/min/kg.
As for `CC1(c2ccc(Cl)cc2F)Oc2cccc(-c3cc(F)c(Cc4nc5ccc(C(=O)O)cc5n4CC4(CC#N)CC4)c(F)c3)c2O1` (centres unmarked) [Example 1, 2-(4-(2-(4-chloro-2-fluorophenyl)-2-methylbenzo[d][1, 3]dioxol-4-yl)-2,6-difluorobenzyl)-1-((1-(cyanomethyl)cyclo-propyl)methyl)-1H-benzo[d]imidazole-6-carboxylic acid], the EC50 on GLP-1R (cAMP increase, read-out: EC50) is 0.51 nM. Besides, in data set [1], the “Predicted Hepatic Clearance (Pred. Cl.)” value is under 1.83 mL/min/kg.
In the same order, the values of `CC1(c2ccc(Cl)cc2F)Oc2cccc(-c3cc(F)c(Cc4nc5ccc(C(=O)O)c(F)c5n4C[C@@H]4CCO4)c(F)c3)c2O1` (stereo partly drawn) [Example 2, 2-(4-(2-(4-chloro-2-fluorophenyl)-2-methylbenzo[d][1, 3]dioxol-4-yl)-2,6-difluorobenzyl)-7-fluoro-1-(((S)-oxetan-2-yl)methyl)-1H-benzo[d]imidazole-6-carboxylic acid] are 0.17 nM and under 1.83 mL/min/kg.
